The source of these data is patent publication US4565699A, “Composition of matter and process” (The Upjohn Company, priority 1983, dated 1986).

SMILES strings stand for the structures. Values after ≈ are worked out from the molar mass of the structure shown. Read-outs that look alike come from different tables or passages of the source.

The test system of one data set is Citrobacter freundii. The experiment in a line: MIC, standard tube dilution assay, BHI medium. Format: cell-based. Particulars: UC3507, UC 3507, read-out: Minimum inhibitory concentration. The source says:
(§1) The assay is a standard tube dilution assay using BHI (Brain Heart Infusion medium-Difco). "UC" is a registered trademark of The Upjohn Company Culture Collection.

In another data set the test system is Enterobacter cloacae. Kind of data set: MIC, standard tube dilution assay, BHI medium. Format: cell-based. Particulars: UC9382, UC 9382, read-out: Minimum inhibitory concentration.
Source text: as §1

The next data set concerns Escherichia coli. The experiment in a line: MIC, standard tube dilution assay, BHI medium. The format is cell-based. The settings on record: UC311, UC 311, read-out: Minimum inhibitory concentration.
Source text: as §1

The next data set relates to Haemophilus influenzae. Kind of data set: MIC, standard tube dilution assay, BHI medium. Format: cell-based.
Source text: as §1

The next data set relates to Klebsiella pneumoniae. The experiment in a line: MIC, standard tube dilution assay, BHI medium. The format is cell-based. The settings on record: UC58, UC 58, read-out: Minimum inhibitory concentration.
Source text: as §1

The next data set deals with Pseudomonas aeruginosa. The experiment in a line: MIC, standard tube dilution assay, BHI medium. Format: cell-based.
Source text: as §1

Another data set concerns Serratia marcescens. The experiment in a line: MIC, standard tube dilution assay, BHI medium. Format: cell-based. Particulars: UC6888, UC 6888, read-out: Minimum inhibitory concentration.
Source text: as §1

The next data set deals with Staphylococcus aureus. The experiment in a line: MIC, standard tube dilution assay, BHI medium. Format: cell-based.
Source text: as §1

The next data set relates to Streptococcus faecalis. Kind of data set: MIC, standard tube dilution assay, BHI medium. The format is cell-based. The settings on record: Enterococcus faecalis, UC694; UC 694; read-out: Minimum inhibitory concentration.
Source text: as §1

The next data set has as its system Streptococcus pneumoniae. The experiment in a line: MIC, standard tube dilution assay, BHI medium. The format is cell-based. Particulars: UC41, UC 41, read-out: Minimum inhibitory concentration.
Source text: as §1

A further data set deals with Streptococcus pyogenes. The experiment in a line: MIC, standard tube dilution assay, BHI medium. The format is cell-based. Particulars: UC152, UC 152, read-out: Minimum inhibitory concentration.
Source text: as §1

A further data set has as its system Gram-positive bacteria. Kind of data set: Antimicrobial spectrum. The format is cell-based.
Source text: as §1

The next data set in a line: Solubilities. Format: physicochemical.

As for `C=C/C(C)=C/C1(CC)SC(=O)C(CC(N)=O)=C1O` (stereo not shown) [U-68,204], the MIC with Citrobacter freundii was more than 600 µg/mL; in the data set on Enterobacter cloacae, more than 600 µg/mL; in the data set on Escherichia coli it was 600 µg/mL (≈ 2240 µM); in the data set on Haemophilus influenzae (UC6482, UC 6482, read-out: Minimum inhibitory concentration), 9.4 µg/mL (≈ 35.2 µM); in the data set with Haemophilus influenzae (UC6483, UC 6483, read-out: Minimum inhibitory concentration) it was 19 µg/mL (≈ 71.1 µM); in the data set on Klebsiella pneumoniae, 300 µg/mL (≈ 1120 µM). In addition, the MIC with Pseudomonas aeruginosa (UC6432, UC 6432, read-out: Minimum inhibitory concentration) is more than 600 µg/mL; with Pseudomonas aeruginosa (UC6676, UC 6676, read-out: Minimum inhibitory concentration) it was more than 600 µg/mL; in the data set on Pseudomonas aeruginosa (UC6954, UC 6954, read-out: Minimum inhibitory concentration) it was more than 600 µg/mL; with Pseudomonas aeruginosa (UC6955, UC 6955, read-out: Minimum inhibitory concentration) it was 19 µg/mL (≈ 71.1 µM); with Pseudomonas aeruginosa (UC9027, UC 9027, read-out: Minimum inhibitory concentration) it was 37.5 µg/mL (≈ 140 µM); in the data set with Serratia marcescens, more than 600 µg/mL. For the same molecule, the MIC with Staphylococcus aureus (UC76, UC 76, read-out: Minimum inhibitory concentration) was 75 µg/mL (≈ 281 µM); in the data set on Staphylococcus aureus (UC3665, UC 3665, read-out: Minimum inhibitory concentration), 75 µg/mL (≈ 281 µM); in the data set on Staphylococcus aureus (UC6675, UC 6675, read-out: Minimum inhibitory concentration), 75 µg/mL (≈ 281 µM); in the data set with Staphylococcus aureus (UC6685, UC 6685, read-out: Minimum inhibitory concentration), 600 µg/mL (≈ 2240 µM); in the data set with Streptococcus faecalis, more than 600 µg/mL; in the data set with Streptococcus pneumoniae, more than 600 µg/mL. Also, in the data set with Streptococcus pyogenes, the MIC is more than 600 µg/mL. For the same molecule, in the data set with Gram-positive bacteria, the “Activity against various Gram-positive bacteria” value is listed as “active”. In addition, the Solubility entry in “Solubilities” (most organic solvents) is listed as “soluble in most organic solvents”; in the data set “Solubilities” (water), “not soluble in water”.
